# From ChEMBL document CHEMBL1201862, “PubChem BioAssay data set” (2004)
#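 Dose response: 5 concentrations. Exposure: 48 h. Format: 96-well plates. Endpoint: linear interpolation; highest concentration if not reached. Here, GI50 denotes the concentration required for 50% inhibition of growth.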 Calls of active or inactive are those of the source. No stated cut-off is given here; in the data, active = GI50 up to about 1.1 µM and inactive = higher.
# Legend:
# Assay in all cases: inhibition of tumour cell growth, NCI panel, 48 h
# HCC 2998 = system: HCC 2998
# SNB-75 = system: SNB-75
# UACC-257 = system: UACC-257
# M14 = system: M14
# SF-295 = system: SF-295
# SK-OV-3 = system: SK-OV-3
# OVCAR-4 = system: OVCAR-4
# MCF7 = system: MCF7
# TK-10 = system: TK-10
# OVCAR-3 = system: OVCAR-3
# 786-0 = system: 786-0
# SK-MEL-28 = system: SK-MEL-28
# MOLT-4 = system: MOLT-4
# CAKI-1 = system: CAKI-1
# KM12 = system: KM12
# SW-620 = system: SW-620
# DU-145 = system: DU-145
# HOP-62 = system: HOP-62
# U-251 = system: U-251
# HOP-92 = system: HOP-92
SMILES,GI50 (HCC 2998),GI50 (SNB-75),GI50 (UACC-257),GI50 (M14),GI50 (SF-295),GI50 (SK-OV-3),GI50 (OVCAR-4),GI50 (MCF7),GI50 (TK-10),GI50 (OVCAR-3),GI50 (786-0),GI50 (SK-MEL-28),GI50 (MOLT-4),GI50 (CAKI-1),GI50 (KM12),GI50 (SW-620),GI50 (DU-145),GI50 (HOP-62),GI50 (U-251),GI50 (HOP-92)
C=C1CC/C=C(\C)CCC[C@H](C)[C@@H](O)[C@@H]2OC(=O)C(=C)[C@@H]2C[C@H]1O,18.4 µM (inactive),12 µM (inactive),9.77 µM (inactive),4.75 µM (inactive),17.2 µM (inactive),29.8 µM (inactive),19.1 µM (inactive),4 µM (inactive),1.49 µM (inactive),9.12 µM (inactive),3.8 µM (inactive),2.99 µM (inactive),2.13 µM (inactive),3.94 µM (inactive),15 µM (inactive),2.22 µM (inactive),4.57 µM (inactive),16 µM (inactive),18.1 µM (inactive),1.18 µM (inactive)
CCOC(=O)c1c(SCCN(CC)CC)n(-c2ccccc2)c(=S)n(-c2ccccc2)c1=O,1.73 µM (inactive),8.81 µM (inactive),2.28 µM (inactive),1.74 µM (inactive),34.2 µM (inactive),19.3 µM (inactive),9.66 µM (inactive),1.27 µM (inactive),1.81 µM (inactive),1.84 µM (inactive),1.77 µM (inactive),2.62 µM (inactive),1.09 µM (active),2.16 µM (inactive),14.3 µM (inactive),2.74 µM (inactive),1.68 µM (inactive),17.3 µM (inactive),15.6 µM (inactive),1.92 µM (inactive)
CN(C(=O)C1=CCC2(CC1)OCCO2)c1ccccc1I,> 100 µM (inactive),> 100 µM (inactive),> 100 µM (inactive),> 100 µM (inactive),> 100 µM (inactive),> 100 µM (inactive),> 100 µM (inactive),> 100 µM (inactive),> 100 µM (inactive),> 100 µM (inactive),> 100 µM (inactive),> 100 µM (inactive),> 100 µM (inactive),> 100 µM (inactive),> 100 µM (inactive),> 100 µM (inactive),> 100 µM (inactive),> 100 µM (inactive),> 100 µM (inactive),> 100 µM (inactive)
CC(=O)Nc1ccc2c3c(cc(O)c2c1)N(C(=O)CCCCCC(=O)Nc1ccc2c4c(cc(O)c2c1)N(C(=O)OC(C)(C)C)CC4CCl)CC3CCl (stereo not given),1.42 µM (inactive),1.49 µM (inactive),3.37 µM (inactive),4.09 µM (inactive),5.73 µM (inactive),3.54 µM (inactive),5.36 µM (inactive),0.233 µM (active),18 µM (inactive),1.57 µM (inactive),2.04 µM (inactive),6.28 µM (inactive),0.0585 µM (active),> 100 µM (inactive),2.73 µM (inactive),2.17 µM (inactive),0.463 µM (active),1.81 µM (inactive),0.74 µM (active),3.59 µM (inactive)
CCOC1C=CC(=O)C(CO)O1 (stereo not given),17.4 µM (inactive),15.3 µM (inactive),5.86 µM (inactive),15 µM (inactive),17.9 µM (inactive),18.8 µM (inactive),8.97 µM (inactive),4.68 µM (inactive),8.43 µM (inactive),6.73 µM (inactive),4.26 µM (inactive),16.9 µM (inactive),6.65 µM (inactive),13.4 µM (inactive),16.4 µM (inactive),9.23 µM (inactive),15.8 µM (inactive),13.2 µM (inactive),12.7 µM (inactive),2.57 µM (inactive)
Cc1ccc(C(=O)c2[nH]c(NCc3ccccc3)c(C(=S)Nc3ccccc3)c2N)cc1,1.29 µM (inactive),4.85 µM (inactive),5.75 µM (inactive),1.95 µM (inactive),5.06 µM (inactive),2.77 µM (inactive),2.74 µM (inactive),2.88 µM (inactive),11.2 µM (inactive),11.8 µM (inactive),5.9 µM (inactive),3.64 µM (inactive),2.83 µM (inactive),14.3 µM (inactive),2.28 µM (inactive),2.38 µM (inactive),13.8 µM (inactive),15.5 µM (inactive),4.04 µM (inactive),6.58 µM (inactive)
FC(F)(F)c1ccccc1N1CCN(c2nc(-c3cccs3)nc3ccc(Br)cc23)CC1,4.58 µM (inactive),24.9 µM (inactive),37.6 µM (inactive),38.7 µM (inactive),30.3 µM (inactive),57.3 µM (inactive),5.16 µM (inactive),1.06 µM (active),15.8 µM (inactive),10.9 µM (inactive),38.2 µM (inactive),35.8 µM (inactive),44.5 µM (inactive),21.6 µM (inactive),13.4 µM (inactive),38.6 µM (inactive),63.4 µM (inactive),50.4 µM (inactive),44.4 µM (inactive),< 0.01 µM (active)
COC(=O)[C@]12CC=C3O[C@@H]4OC5(CCCCC5)O[C@@H]4[C@H]3C1C(=O)C=CC2=O (stereo not given in full),17.2 µM (inactive),18.8 µM (inactive),16.3 µM (inactive),17.4 µM (inactive),24.6 µM (inactive),30.7 µM (inactive),17.1 µM (inactive),16 µM (inactive),17.1 µM (inactive),8.81 µM (inactive),17 µM (inactive),18.9 µM (inactive),7.03 µM (inactive),15.9 µM (inactive),10.9 µM (inactive),15.9 µM (inactive),21 µM (inactive),21 µM (inactive),18.7 µM (inactive),18.7 µM (inactive)
COC(=O)[C@H](COC(C)(C)C)NC(=O)N[C@H](C)c1ccccc1,> 100 µM (inactive),> 100 µM (inactive),> 100 µM (inactive),> 100 µM (inactive),> 100 µM (inactive),> 100 µM (inactive),> 100 µM (inactive),> 100 µM (inactive),> 100 µM (inactive),> 100 µM (inactive),> 100 µM (inactive),> 100 µM (inactive),> 100 µM (inactive),> 100 µM (inactive),> 100 µM (inactive),> 100 µM (inactive),> 100 µM (inactive),> 100 µM (inactive),> 100 µM (inactive),> 100 µM (inactive)
Cc1cccc2c1NC(=S)[C@@H]1CCCN1C2=O,> 100 µM (inactive),54 µM (inactive),> 100 µM (inactive),> 100 µM (inactive),> 100 µM (inactive),> 100 µM (inactive),> 100 µM (inactive),> 100 µM (inactive),> 100 µM (inactive),> 100 µM (inactive),> 100 µM (inactive),> 100 µM (inactive),> 100 µM (inactive),> 100 µM (inactive),> 100 µM (inactive),> 100 µM (inactive),> 100 µM (inactive),> 100 µM (inactive),> 100 µM (inactive),> 100 µM (inactive)
Cc1c(C)c(S(=O)(=O)N(CCCN)OCCCN)c(C)c2c1OC(C)(C)CC2,4.14 µM (inactive),11.3 µM (inactive),13.7 µM (inactive),14.3 µM (inactive),16.3 µM (inactive),15.4 µM (inactive),8.17 µM (inactive),15.4 µM (inactive),14.7 µM (inactive),15 µM (inactive),15.9 µM (inactive),15.2 µM (inactive),4.61 µM (inactive),16.5 µM (inactive),12.4 µM (inactive),15.1 µM (inactive),16 µM (inactive),13.3 µM (inactive),11.9 µM (inactive),7.5 µM (inactive)
COc1cc(OC)c2c(=O)c(O)c(-c3ccc(OC)c(OC)c3)oc2c1,4.26 µM (inactive),7.59 µM (inactive),5.25 µM (inactive),9.4 µM (inactive),5.37 µM (inactive),13.6 µM (inactive),0.607 µM (active),4.02 µM (inactive),11.2 µM (inactive),3.56 µM (inactive),6.87 µM (inactive),> 25.2 µM (inactive),2.89 µM (inactive),4.1 µM (inactive),7.29 µM (inactive),7.8 µM (inactive),8.28 µM (inactive),3.99 µM (inactive),4.94 µM (inactive),2.99 µM (inactive)
